Source: ChEMBL document CHEMBL5725252, “Spirocyclic dihydro-thiazine and dihydro-oxazine BACE inhibitors, and compositions and uses thereof” (2016)

Legend:
[1] = target: T1, Beta-secretase 1 (Homo sapiens, UniProt P56817); assay: AlphaScreen Assay: BACE1 activity can be assessed in an AlphaScreen® assay. Compounds to be assessed (e.g. compounds as described in the above examples) are serially diluted 1:4 in DMSO, then plated by diluting 10 μL of compound with 40 μl of assay buffer (1×PBS, 0.01% Tween-20, pH 7.0, 0.05% BSA). The diluted compound is transferred (4 μL per well) to a […] well assay plate and 4 μL of BACE1 enzyme (20 mg/mL) is added and incubated for 15 minutes. This assay uses a probe that is a BACE1 binding sight ligand linked to biotin, which can be displaced by test compound dependent on compound binding affinity. This of biotinylated probe (4 μL) is added and incubated for 1 hour, followed with 4 μL of donor and acceptor bead mixture and incubated for 2 hours. The fluorescent signal is read on a plate reader and the value as a function of compound concentration is used to determine the IC50.
T1 sequence (P56817 whole entry): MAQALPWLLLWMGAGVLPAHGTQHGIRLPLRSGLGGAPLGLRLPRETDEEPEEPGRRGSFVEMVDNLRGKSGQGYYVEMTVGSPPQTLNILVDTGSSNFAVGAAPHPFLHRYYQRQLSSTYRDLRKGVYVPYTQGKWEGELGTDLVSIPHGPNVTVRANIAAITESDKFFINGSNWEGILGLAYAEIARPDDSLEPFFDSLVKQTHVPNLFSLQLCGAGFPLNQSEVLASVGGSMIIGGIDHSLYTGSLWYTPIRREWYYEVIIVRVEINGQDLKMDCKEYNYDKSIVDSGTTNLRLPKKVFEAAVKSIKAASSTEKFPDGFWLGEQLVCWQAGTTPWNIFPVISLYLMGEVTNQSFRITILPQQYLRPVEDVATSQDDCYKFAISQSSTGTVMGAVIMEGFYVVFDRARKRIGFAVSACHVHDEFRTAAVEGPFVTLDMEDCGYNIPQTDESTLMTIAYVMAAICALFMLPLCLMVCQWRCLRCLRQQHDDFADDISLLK

[2] = target: T1, Beta-secretase 1; assay: FP Assay: Compounds are also assessed for BACE1 and Cathepsin D activity using an FP Assay. Compounds to be assessed (e.g. compounds as described in the above examples) are serially diluted 1:3 with DMSO and each concentration point is transferred to a 96 well plate, 6 uL per well, followed by addition of 194 uL of assay buffer (100 mM sodium acetate, pH 4.5 with 0.001% Tween-20). A 10 uL compound sample from this plate is transferred to a well of a 384 well plate and combined with 10 uL per well of BACE1 enzyme (0.3 nM in assay buffer) or Cathepsin D enzyme (1.8 nM in assay buffer) and the plate is incubated at room temperature for 30 minutes.

Structure (SMILES): C[C@@]1(c2cc(/C=C/c3ccc(F)cc3)ccc2F)CC2(CCC(F)(F)CC2)OC(N)=N1
- IC50 [1]: 1.96 µM
- IC50 [2]: 13.1 µM
